For one compound, IC50 results are on record in patent US6919455B2, “Purine derivative dihydrate, drugs containing the same as the active ingredient and intermediate in the production thereof” (Mitsubishi Chemical Corporation, priority 1999, dated 2005).

The assay concerns PDE IV. Briefly: PDE IV inhibiting effect (3H-cAMP hydrolysis, crude enzyme from U937 cells). The note with it: read-out: IC50 (concentration for 50% inhibition) against PDE IV; crude enzyme from cytoplasmic fraction of human monocyte-like U937 cells; 0.4 μM 3H-cAMP; pH 8.0; 30° C., 15 minutes.

Protocol: The crude enzyme was purified from a cytoplasmic fraction of human monocyte-like cell strain U937 by using a Q-Sepharose column according to the method of Nicholson et al. (Br. J. Pharmacol., 97, 889 (1989)]. The enzymatic activity was determined by performing a reaction using 0.4 μM ^3H-cAMP as the substrate in 50 mM Tris buffer (pH 8.0) containing 0.1 mg/ml BSA, 1 ml of EDTA and 5 mM MgCl2 at 30° C. for 15 minutes, and then separating the produced ^3H-5′-AMP using a cation exchange column and measuring its radioactivity according to the method of Hidaka et al. [Biochem. Med., 10, 301 (1974)]. After a test compound was added, the reaction mixture was incubated at 30° C. for 15 minutes, and then added with the substrate.

For `COc1ccc(Cn2c(C)nc3c(C)nc(OCCCc4cc[n+]([O-])cc4)nc32)cc1OC1CCCC1` [dihydrate of the present invention, Dihydrate of 4-[[9-[(3-cyclopentyloxy-4-methoxy)benzyl]-6,8-dimethylpurine]-2-yl-3-oxypropyl]pyridine N-oxide], the IC50 came out at 3.41 nM.
